Key:
[1] = molecular target: T1, TNK1 (Homo sapiens, UniProt Q13470); test: TNK1 NanoBRET target engagement assay (HEK293); type: cell-based; parameters: host or cells: HEK293; conditions: HEK293 cells, 2 hours; read-out: NanoBRET TE Assay (HEK293) IC50
T1 sequence (Q13470 1-666): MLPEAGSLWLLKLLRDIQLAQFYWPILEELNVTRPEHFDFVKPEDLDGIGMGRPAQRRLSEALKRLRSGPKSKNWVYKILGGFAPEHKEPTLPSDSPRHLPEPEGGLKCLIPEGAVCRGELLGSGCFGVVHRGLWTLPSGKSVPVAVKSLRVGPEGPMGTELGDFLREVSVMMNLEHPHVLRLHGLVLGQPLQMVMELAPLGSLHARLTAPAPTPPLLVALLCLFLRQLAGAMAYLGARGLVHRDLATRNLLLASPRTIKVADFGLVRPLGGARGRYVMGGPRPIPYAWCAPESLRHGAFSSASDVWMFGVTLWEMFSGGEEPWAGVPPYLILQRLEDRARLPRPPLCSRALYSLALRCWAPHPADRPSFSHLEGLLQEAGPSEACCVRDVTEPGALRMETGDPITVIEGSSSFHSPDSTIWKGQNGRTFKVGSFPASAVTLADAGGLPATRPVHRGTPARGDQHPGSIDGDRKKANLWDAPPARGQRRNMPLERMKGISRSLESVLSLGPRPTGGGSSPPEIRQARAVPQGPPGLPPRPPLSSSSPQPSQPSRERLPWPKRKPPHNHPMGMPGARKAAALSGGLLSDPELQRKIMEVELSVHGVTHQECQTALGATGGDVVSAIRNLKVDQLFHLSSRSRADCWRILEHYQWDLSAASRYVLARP
Text: The NanoBRET target engagement (TE) assay (Promega, Madison, Wis.) enables the interrogation of the displacement of a tracer compound in the active site of a recombinant kinase by a test compound in the intracellular setting. The assay enables simultaneous testing of permeability, solubility, and kinase inhibition, and tests the specific interaction of test agents with a kinase of interest, here, TNK1. The assay is based on the principle of bioluminescence resonance energy transfer (BRET). In the assay, a plasmid-encoded, luciferase-tagged form of TNK1 is transfected into cells. A tracer compound is tagged with a fluorophore that fluoresces when bound to the TNK1 protein. Readout is luminescence and fluorescence. Test compounds show activity by displacing the tracer, thus disrupting BRET.
Methods: The TNK1 NanoBRET TE assays were performed according to the manufacturer's protocol. Briefly, Nanoluc-TNK1 Fusion Vector (Promega, Madison, Wis., Cat. No. NV2181) was transfected into HEK293 cells in bulk (8×10^6 cells in a T175 flask). Up to 30 hours post-transfection, cells were harvested by trypsinization, resuspended at a concentration of 2×10^5 cells/mL, and seeded in 96-well plates at 85 μL/well. A test compound and the K5 tracer were added to each well, and the cells were incubated for 2 hours. Luminescence ([…]) and fluorescence ([…]) were measured to determine a BRET ratio. IC50 values were determined from the BRET ratios using the Graphpad Prism software (GraphPad Software, San Diego, Calif.).

[2] = system: L540 cells; test: In-vitro cell viability assay (CellTiter-Glo), L540; type: cell-based; conditions: Homo sapiens, L-540
Method: Tnk1 is known to drive proliferation and survival of Hodgkin's lymphoma (HL) cells, such as K652 and L540 cell lines (Gu et al., Identification of activated Tnk1 kinase in Hodgkin's lymphoma, Leukemia 24: 861-65 ((2010)). Downregulation of Tnk1 inhibits cell growth and proliferation, and increases apoptosis. To study the individual test compounds in the context of HL cells, CellTiter-Glo® assays (Promega, Madison, Wis.) were performed according to the manufacturer's instructions. The CellTiter-Glo® assay system uses a thermostable luciferase to generate a stable “glow-type” luminescent signal while simultaneously inhibiting endogenous enzymes released during cell lysis (e.g., ATPases). As such, the assay provides a sensitive and stable luminescent output.
Reagent Preparation • 1. The CellTiter-Glo® Buffer was thawed and equilibrated to room temperature prior to use. • 2. The lyophilized CellTiter-Glo® Substrate was equilibrated to room temperature prior to use. • 3. An appropriate volume of CellTiter-Glo® Buffer was transferred into the amber bottle containing CellTiter-Glo® Substrate according the manufacturer's recommendation. The reconstituted lyophilized enzyme/substrate mixture formed the CellTiter-Glo® Reagent. • 4. The CellTiter-Glo® Reagent was mixed by gently vortexing, swirling or inverting the contents to obtain a homogeneous solution.
Protocol for the Cell Viability Assay • 1. A titration of the K652 or L540 cells was performed to determine the optimal number and ensure that the CellTiter-Glo® Assay was performed within the linear range. • 2. Opaque-walled multiwell plates (compatible with the luminometer) were prepared with K652 or L540 cells in culture medium, 100 μl per well for 96-well plates or 25 μl per well for 384-well plates. • 3. Control wells containing medium without cells were prepared to obtain a value for background luminescence. • 4. Test compound was added to experimental wells, and incubated according to culture protocol. • 5. The plate and its contents were equilibrated at room temperature for approximately 30 minutes.
Protocol for Generating an ATP Standard Curve • 1. 1 μM ATP was prepared in culture medium (100 μl of 1 μM ATP solution contains 10^−10 moles ATP). • 2. Serial tenfold dilutions of ATP in culture medium (1 μM to 10 nM; 100 μl contains 10^−10 to 10^−12 moles of ATP) were performed. • 3. A multiwell plate with varying concentrations of ATP standard in 100 μl medium (25 μl for a 384-well plate) was prepared. • 4. A volume of CellTiter-Glo® Reagent equal to the volume of ATP standard present in each well was added. • 5. Contents were mixed for 2 minutes on an orbital shaker. • 6. The plate was allowed to incubate at room temperature for 10 minutes to stabilize the luminescent signal. • 7. Luminescence was recorded.

Row | Compound | IC50 [1] [nM] | IC50 [2] [µM]
1 | COc1cc(N2CCN(C)CC2)c(Cl)cc1Nc1ncc(Cl)c(Nc2cccnc2N2CCCC2=O)n1 [Example No. 13, 1-(3-((5-chloro-2-((5-chloro-2-methoxy-4-(4-methylpiperazin-1-yl)phenyl)amino)pyrimidin-4-yl)amino)pyridin-2-yl)pyrrolidin-2-one] | < 150 | < 0.5
2 | CCOc1cc(N2CCN(C)CC2)ccc1Nc1ncc(Cl)c(Nc2cccnc2N(C)C)n1 [compound 3, 5-chloro-N^4-(2-(dimethylamino)pyridin-3-yl)-N^2-(2-ethoxy-4-(4-methylpiperazin-1-yl)phenyl)pyrimidine-2,4-diamine] | > 1000 | ≥ 6
3 | CC(C)Oc1cc(N2CCN(C)CC2)ccc1Nc1ncc(Cl)c(Nc2cccnc2N(C)C)n1 [compound 4, 5-chloro-N^4-(2-(dimethylamino)pyridin-3-yl)-N^2-(2-isopropoxy-4-(4-methylpiperazin-1-yl)phenyl)pyrimidine-2,4-diamine] | > 1000 | ≥ 6
4 | CN1CCN(c2ccc(Nc3ncc(Cl)c(Nc4cccnc4N(C)C)n3)cc2)CC1 [compound 5, 5-chloro-N^4-(2-(dimethylamino)pyridin-3-yl)-N^2-(4-(4-methylpiperazin-1-yl)phenyl)pyrimidine-2,4-diamine] | 150 to 1000 | 0.5 to 1.5
5 | COc1cc(N2CCN(C)CC2)c(C)cc1Nc1ncc(Br)c(Nc2cccnc2N(C)C)n1 [compound 10, 5-bromo-N^4-(2-(dimethylamino)pyridin-3-yl)-N^2-(2-methoxy-5-methyl-4-(4-methylpiperazin-1-yl)phenyl)pyrimidine-2,4-diamine] | < 150 | < 0.5

Second part, led by results:

Row | IC50 [1] [nM] | Compound | IC50 [2] [µM]
6 | < 150 | CN1CCN(c2c(Cl)cc(Nc3ncc(Cl)c(Nc4cccnc4N4CCCC4=O)n3)c3ccccc23)CC1 [Example No. 18, 1-(3-((5-chloro-2-((3-chloro-4-(4-methylpiperazin-1-yl)naphthalen-1-yl)amino)pyrimidin-4-yl)amino)pyridin-2-yl)pyrrolidin-2-one] | < 0.5
7 | < 150 | COc1cc(N2CCN(C)CC2)c(Cl)cc1Nc1ncc(Cl)c(Nc2cccnc2N2CCNC2=O)n1 [Example No. 21, 1-(3-((5-chloro-2-((5-chloro-2-methoxy-4-(4-methylpiperazin-1-yl)phenyl)amino)pyrimidin-4-yl)amino)pyridin-2-yl)imidazolidin-2-one] | 1.5 to 6
8 | < 150 | CN1CCN(c2ccc(Nc3ncc(Cl)c(Nc4cccnc4N4CCCC4=O)n3)cc2)CC1 [compound 1, 1-(3-((5-chloro-2-((4-(4-methylpiperazin-1-yl)phenyl)amino)pyrimidin-4-yl)amino)pyridin-2-yl)pyrrolidin-2-one] | 0.5 to 1.5
9 | < 150 | COc1cc(N2CCN(C)CC2)ccc1Nc1ncc(Cl)c(Nc2cccnc2N2CCCC2=O)n1 [compound 2, 1-(3-((5-chloro-2-((2-methoxy-4-(4-methylpiperazin-1-yl)phenyl)amino)pyrimidin-4-yl)amino)pyridin-2-yl)pyrrolidin-2-one] | 0.5 to 1.5
10 | < 150 | COc1cc(N2CCN(C)CC2)c(C)cc1Nc1ncc(Cl)c(Nc2cccnc2N2CCNC2=O)n1 [compound 9, 1-(3-((5-chloro-2-((2-methoxy-5-methyl-4-(4-methylpiperazin-1-yl)phenyl)amino)pyrimidin-4-yl)amino)pyridin-2-yl)imidazolidin-2-one] | < 0.5
